# Reference: patent US20240009436A1, “LOCALIZED […] OF […] […] AGENTS USING FOCUSED ULTRASOUND” (priority 2020, published 2024)
# How the values were obtained:
# [1] = system: brain; details: cited from earlier work
# [2] = system: VEPs in primary visual cortex (V1); assay: Visually evoked potentials (VEPs) in V1 after delivery to vS1; type: in vivo, rat; details: muscimol delivered to vS1 using AU-FUS
# Description: To rule out that the observed modulation of vM1 could be due to spreading of muscimol from vS1, signals were recorded from a cortical area close to vS1 but without significant connectivity with vS1: Muscimol was delivered to vS1 using AU-FUS, and the visually evoked potentials (VEPs) were measured from primary visual cortex (V1). […] V1 and vM1 recordings were done on separate cohorts. The same ultrasound parameters were used for both vS1-vM1 and vS1-V1 paradigms.
# The protocol used for vS1-V1 was the same as vS1-vM1 paradigm with the following exceptions: FUS sonication coordinates were changed to AP: −2.3 mm, ML: 6.5 mm, DV: 3.3 mm from skull surface and FUS angle was changed from 30° to 34° to create space for electrode insertion to V1. A more lateral region of vS1 was sonicated to achieve better coupling with skull with the new angling of the FUS transducer. Electrode insertion coordinates were changed for V1 recording to AP: −5.5-6.0 mm, ML: 3.2-3.5 mm, DV: 1.6-2.0 mm to ensure that recording is done from cortical layers of V1. […] Instead of wEPs, VEPs were recorded by visual stimulation. […]
# All electrophysiological data analysis was done in Python, version 3.6, using custom scripts. […] For wEP and VEP analysis, moving averages were calculated for a window step size of 180 whisker deflections/visual stimuli (moving step size is 1 deflection/visual stimulus). […]
# [3] = rat barrel cortex; cited from earlier work
# [4] = system: vS1-vM1 circuit (wEPs in vM1); assay: Whisker-evoked potentials (wEPs) in vM1 after delivery to vS1 in anesthetized rats; type: in vivo, rat
# Description: The AU-FUS sequence [AU-FUS (in vivo); see Table 1] was tested in vivo by manipulating a specific cortical network without opening the BBB. Rat vibrissa motor cortex (vM1) receives whisker sensory information (˜80%) through projections from vibrissa sensory cortex (vS1, “Barrel cortex”). When rodent whiskers are mechanically deflected, evoked activity propagates from brainstem via thalamus to vS1, and then to vM1. During simultaneous recordings the peaks of whisker-evoked potentials (wEPs) were observed first in vS1 and ˜3.0 ms later in vM1. It was tested whether inhibiting vS1 by the novel technique would suppress wEPs in vM1 in anesthetized rats. The FUS transducer was positioned above the intact skull and focused on vS1. Using a multielectrode array, the wEPs and the whisker-evoked multi-unit activity in vM1 were monitored online. In parallel, muscimol-loaded UC-carriers were continuously (i.v.) injected. The AU-FUS sequence was applied repeatedly on vS1 to aggregate the UC-carriers and to uncage muscimol. Muscimol is an agonist of ionotropic GABAA receptors, the major receptor responsible for fast inhibitory transmission in the brain, which […] the BBB.
# The animal was anesthetized, a small craniotomy was performed over vM1 (TZ region) or V1 for inserting a recording probe 140, and a FUS transducer 136 was positioned on the intact skull above vS1 with the help of stereotaxic coordinates and coupled with sterile ultrasound gel and water collimator.
# Muscimol-loaded UC-carriers were injected intravenously through the tail vein using an infusion pump 110. vM1 and V1 recordings were performed on separate cohorts.
# Whiskers were cut to around 15 mm length. The 8-12 largest whiskers were inserted into a glass capillary tube which was attached to a piezo actuator (T223-H4CL-503X, Piezo Systems). The piezo actuator was shielded with a custom-made copper cover. The whiskers were deflected with 120 Hz cosine pulses (292 mm/s velocity, displaced 2.34 mm in 8 ms) which were generated in LabView (National Instruments) and converted into an analog signal (DAC NI, USB-6211) which then drove the piezo actuator. Stimulus presentation was synchronized with the electrophysiological recordings with a TTL signal at stimulus onset. Whiskers were continuously stimulated at a repetition rate of 0.3 Hz.
# All electrophysiological data were recorded with a RHD2000 system (Intan Technologies) with 30 kS/s sampling rate. All stereotaxic coordinates were determined with respect to bregma. A 32 channel Neuronexus probe (A2x16-10 mm-100-500-177-A32, 15 or 50 μm thick) attached to a motorized 3D arm (StereoDrive-960HD, Neurostar), fixed outside of the stereotaxic frame, was inserted into the vM1 (Coordinates AP: 1-2 mm, ML: 0.5-1 mm, depending on the vasculature, DV: 1.5-2 mm from pia) at 50° to the coronal plane. The probe was initially inserted ˜250-500 μm below the cortical surface. The FUS transducer was integrated with an acoustic collimator which was filled with degassed and deionized water and contained a polystyrene film (McMaster-Carr) at the end. The collimator's shape was designed according to the FUS transducer's geometry so that it would not interfere with the FUS beam. This assembly was stereotaxically positioned such that the FUS focal volume was targeted to vS1 (Coordinates AP: −2.3 mm, ML: 6 mm, DV: 3.3 mm from skull surface) at a 30° angle with respect to the sagittal plane such that the focal volume of FUS beam targeted cortical layers of vS1. […]
# [5] = i.v., without AU-FUS or UC-carriers
smiles,measurement,setting,value
NCc1cc(=O)[nH]o1 [muscimol],amount of systemic muscimol required for brain inactivation,[1],~1.6 mg/kg
same,change of VEPs recorded from V1,[2],No statistically significant changes
same,diffusion coefficient D,[3],8.7×10^−6 cm^2 s^−1
same,"change of wEPs in vM1, baseline vs post-treatment",[4]; free muscimol (250 ng) and vehicle-loaded UC-carriers with AU-FUS (control),No statistically significant changes
same,systemic muscimol needed for comparable reduction of wEPs,[4]; [5],at least 260 μg
same,"systemic muscimol needed for comparable reduction of wEPs, relative to measured payload of the UC-carriers",[4]; [5],at least 1300 times
same,time of maximum inhibition in vM1,[4]; muscimol uncaged in vS1 by AU-FUS,≤ 20 min
same,"change of wEPs in vM1, baseline vs post-treatment",[4]; systemic injection of free muscimol (250 ng) with AU-FUS (control),No statistically significant changes
